Measurements taken from patent publication US20230210116A1, “HONEYBEE REPELLENT” (EARTH CORPORATION, priority 2020, published 2023).
Where a name gives a salt, the structure may show the parent alone.

Assays:
stink bugs = experiment: Test for Confirmation of Stink Bug Behaviors against Active Ingredients 1, 2, 3 (treated filter paper); assay type: in vivo, southern green stink bugs
Excerpt: The test samples in “Test for Confirmation of Honeybee Repelling Effect 1” above were used.
A liquid calcium carbonate/ethanol dispersion was applied on the entire interior wall of a KP cup (100 mm in diameter×90 mm in height) and air-dried, after which a filter paper (90 mm in diameter) was fixed on the bottom face of the KP cup using double-sided tape. A different filter paper (90 mm in diameter) was cut along its diameter and the resulting semicircle-shaped paper was uniformly treated with 400 μL of each test sample or sample for correction, and then placed over the filter paper fixed on the aforementioned bottom face of the KP cup by allowing the circular parts to overlap, for use as a testing device.
The “repelling rate Y” and “corrected repelling rate Z” were calculated from the above “time A (sec)” and “time B (sec)” using the calculation formula below. For the “repelling rate of sample for correction” used to calculate the “corrected repelling rate Z,” the repelling rate of each of the samples for correction above (ethanol alone or water alone being a solvent for the active ingredient) was used.
Corrected repelling rate Z (%)={Repelling rate of test sample−Repelling rate of sample for correction}/{100−Repelling rate of sample for correction}×100
For the test samples, the test samples in “Test for Confirmation of Honeybee Repelling Effect 2” above were used.

honeybees = experiment: Test for Confirmation of Honeybee Repelling Effect 1, 2, 3 (feeding station with 40% sugar water); assay type: in vivo; details: for Corrected repelling rate (%) Honeybees: Test 3, 5 mL
Excerpt: The following were used as the test samples for Examples: 2% by weight per volume ethanol solutions of octane (a-1), tetradecane (a-2), heptadecane (a-3), nonadecane (a-4), 2-acetylfuran (b-1), 5-methyl-2-furaldehyde (b-2), furfural (b-3), furaneol (c-1), 2-acetylpyrrole (d-1), 1-benzylpyrrole (d-2), 1-octanol (e-1), 1-dodecanol (e-2), and 1-octadecanol (e-3), respectively; and 2% by weight per volume aqueous solutions of furfuryl alcohol (b-4), sotolon (c-2), and α-angelicalactone (c-3), respectively.
The following were used as the test samples for Comparative Examples: 2% by weight per volume ethanol solutions of eicosane (carbon number 20, p-1), heneicosane (carbon number 21, p-2), 2-methyloctane (branched alkane, p-3), tributyl o-acetylcitrate (p-4), and 1-methylpyrrole (p-5), respectively; and 2% by weight per volume aqueous solutions of 2-methyltetrahydrofuran-3-one (p-6) and acetic acid (p-7), respectively.
Ethanol alone and water alone were used as samples for correction.
The cotton pads 13 were impregnated with 40% sugar water (80 g), after which disposable wooden chopsticks 15 (80 mm in length) were placed over the cotton pads on the lid surface as “landing areas,” for use as “test insect (honeybee) feeding station 1” 10.
A nest box of test insects (honeybees) (1 colony: approx. 6,000 bees) was placed at the center of a glass hothouse (bottom face: 5 m×10 m, height (highest part): 3 m, temperature: 25° C.), and the aforementioned “test insect (honeybee) feeding station 1” was installed at a location 2 meters away from the nest box.
After confirming that at least five test insects (honeybees) were feeding at the above “test insect (honeybee) feeding station 1” installed in the hothouse, test 1 was conducted to measure the “approaching count (Mz)” and “landing count (My)” and calculate the “landing rate (Mx).”
Next, the “test insect (honeybee) feeding station 1” installed in the hothouse was replaced with each “test insect (honeybee) feeding station 2” which was let to stand still for 5 minutes, after which test 2 was conducted to measure the “approaching count (Nz)” and “landing count (Ny)” and calculate the “landing rate (Nx).”
Approaching count: Total number of times a honeybee has approached within 25 cm of the cotton wools at the feeding station during 5 minutes
Landing count: Total number of honeybees that have remained for at least 1 second on the cotton pads at the feeding station during 5 minutes
Landing rate (%): (Landing count/Approaching count)×100
The “repelling rate Q” and “corrected repelling rate R” were calculated from the above “landing rates” using the calculation formula below. For the “repelling rate of sample for correction” used to calculate the “corrected repelling rate R,” the repelling rate of each of the samples for correction above (ethanol alone or water alone being a solvent for the active ingredient) was used.
Repelling rate Q (%)={(Mx)−(Nx)}/(Mx)×100
Corrected repelling rate R (%)={Repelling rate of test sample−Repelling rate of sample for correction}/{100−Repelling rate of sample for correction}×100
The following were used as the test samples for Examples: 0.1% by weight per volume ethanol solutions of 3-methyl-2-butanol (e-4), carvacrol (x-1), isoeugenol (x-2), cinnamyl alcohol (x-3), diacetone alcohol (x-4), α-amylcinnamaldehyde (x-5), 3-methyl-2-butenal (x-6), valeraldehyde (x-7), ethyl cinnamate (x-8), methyl cinnamate (x-9), ethyl isovalerate (x-10), isoamyl formate (x-11), 5-ethyl-2-methylpyridine (x-12), 2-(3-phenylpropyl)pyridine (x-13), 2,6-dimethylpyridine (x-14), ß-ionone (x-15), 2-acetylthiazole (x-16), butylamine (x-17), and citronella oil (x-18), respectively; and a 0.1% by weight per volume aqueous solution of (3-amino-3-carboxypropyl)dimethylsulfonium chloride (x-19).

[1] = Test 1, 2% by weight per volume solution, 400 μL on filter paper, 30 minutes
[2] = Test 1, 2% by weight per volume solution
[3] = Test 1, honeybees, 2% by weight per volume solution, 5 mL sprayed (active ingredient 0.1 g)
[4] = Test 3, 0.1% by weight per volume solution, 400 μL
[5] = 0.1% by weight per volume solution
[6] = Test 2, 0.1% by weight per volume solution, 400 μL
[7] = Test 2, honeybees, 0.1% by weight per volume solution, 5 mL (active ingredient 5 mg)
[8] = 2.0% by weight per volume solution

Row | Molecule | Corrected repelling rate (%) Honeybees (honeybees; [5]) [%] | Corrected repelling rate (%) Stinkbugs (stink bugs; [6]) [%] | Corrected repelling rate R (%) (honeybees; [7]) | also measured
1 | CCCCCCCC [a-1, octane] |  |  |  | Corrected repelling rate (%) Stinkbugs (stink bugs; [1]): <0%; repelling effect / repelled behaviors of honeybees (in words) (honeybees; [2]): excellent repelling effect; Corrected repelling rate R (%) (honeybees; [3]): 57.0%
2 | CCCCCCCCCCCCCC [a-2, tetradecane] |  |  |  | Corrected repelling rate (%) Stinkbugs (stink bugs; [1]): <0%; repelling effect / repelled behaviors of honeybees (in words) (honeybees; [2]): excellent repelling effect; Corrected repelling rate R (%) (honeybees; [3]): 96.5%
3 | CC(=O)c1ccco1 [b-1, 2-acetylfuran] |  |  |  | Corrected repelling rate (%) Stinkbugs (stink bugs; [1]): <0%; Corrected repelling rate R (%) (honeybees; [3]): 60.3%
4 | OCc1ccco1 [b-4, furfuryl alcohol] |  |  |  | Corrected repelling rate (%) Stinkbugs (stink bugs; 0.5 h, 2 % strength): <0%; Corrected repelling rate R (%) (honeybees; 2 % strength): 94.8%
5 | CC1=C(O)C(=O)C(C)O1 (stereo not shown) [c-1, furaneol] |  |  |  | Corrected repelling rate (%) Stinkbugs (stink bugs; [1]): <0%; Corrected repelling rate R (%) (honeybees; [3]): 44.0%
6 | CC1=C(O)C(=O)OC1C (stereo not shown) [c-2, sotolon] |  |  |  | Corrected repelling rate (%) Stinkbugs (stink bugs; [1]): <0%; repelling effect / repelled behaviors of honeybees (in words) (honeybees; [2]): excellent repelling effect; Corrected repelling rate R (%) (honeybees; [3]): 79.7%
7 | CC1=CCC(=O)O1 [c-3, α-angelicalactone] |  |  |  | Corrected repelling rate (%) Stinkbugs (stink bugs; [1]): <0%; repelling effect / repelled behaviors of honeybees (in words) (honeybees; [2]): excellent repelling effect; Corrected repelling rate R (%) (honeybees; [3]): 31.7%
8 | c1coc(Cn2cccc2)c1 [d-3, 1-furfurylpyrrole] | 25.4 |  |  | Corrected repelling rate (%) Stinkbugs (stink bugs; [4]): ∘
9 | CC(C)C(C)O (stereo not shown) [e-4, 3-methyl-2-butanol] |  | <0 | 17.7 | 
10 | CCCCCO [e-7, 1-pentanol] | 68.9 |  |  | repelling of stink bugs and other injurious insects to be exterminated (in words) (stink bugs): not repelling stink bugs; Corrected repelling rate (%) Stinkbugs (stink bugs; [4]): ∘
11 | CC(C)=CCO [e-8, 3-methyl-2-buten-1-ol] | 30.4 |  |  | Corrected repelling rate (%) Stinkbugs (stink bugs; [4]): ∘
12 | Cc1ccc(C(C)C)cc1O [x-1, carvacrol] |  | <0 | 80.6 | 
13 | OCC=Cc1ccccc1 [x-3, cinnamyl alcohol] |  | <0 | 98.2 | 
14 | CC(C)=CC=O [x-6, 3-methyl-2-butenal] |  | <0 | 91.8 | 
15 | CCCCC=O [x-7, valeraldehyde] |  | <0 | 50.7 | 
16 | CCOC(=O)C=Cc1ccccc1 [x-8, ethyl cinnamate] |  | <0 | 21.8 | 
17 | COC(=O)C=Cc1ccccc1 [x-9, methyl cinnamate] |  | <0 | 93.3 | 
18 | CCOC(=O)CC(C)C [x-10, ethyl isovalerate] |  | <0 | 61.0 | 
19 | CC(C)CCOC=O [x-11, isoamyl formate] |  | <0 | 15.1 | 
20 | CCc1ccc(C)nc1 [x-12, 5-ethyl-2-methylpyridine] |  | <0 | 72.4 | 
21 | c1ccc(CCCc2ccccn2)cc1 [x-13, 2-(3-phenylpropyl)pyridine] |  | <0 | 86.4 | 

Row | Molecule | Corrected repelling rate (%) Honeybees (honeybees; [5]) [%] | Corrected repelling rate (%) Stinkbugs (stink bugs; [6]) [%] | Corrected repelling rate R (%) (honeybees; [7]) | also measured
22 | Cc1cccc(C)n1 [x-14, 2,6-dimethylpyridine] |  | <0 | 50.0 | 
23 | CC(=O)/C=C/C1=C(C)CCCC1(C)C [x-15, ß-ionone] |  | <0 | 83.7 | 
24 | CCCCN [x-17, butylamine] |  | <0 | 83.4 | 
25 | C[S+](C)CCC(N)C(=O)O.[Cl-] (stereo not shown) [x-19, (3-amino-3-carboxypropyl)dimethylsulfonium chloride] |  | <0 | 40.9 | 
26 | CC1(C)C2CCC1(C)C(O)C2 (stereo not shown) [y-1, borneol] | 80.0 |  |  | repelling of stink bugs and other injurious insects to be exterminated (in words) (stink bugs): not repelling stink bugs; Corrected repelling rate (%) Stinkbugs (stink bugs; [4]): ∘
27 | CCCCCCCC1CCC(=O)O1 (stereo not shown) [y-63, γ-undecalactone] |  |  |  | repelling of stink bugs and other injurious insects to be exterminated (in words) (stink bugs): not repelling stink bugs
28 | CCCCCCCCCCCCCCCCCC(=O)O [y-74, stearic acid] | 33.7 |  |  | 
29 | O=C(O)c1ccc(O)cc1 [y-77, 4-hydroxybenzoic acid] | 80.1 |  |  | 
30 | c1ccc2scnc2c1 [y-78, benzothiazole] | 87.7 |  |  | 
31 | Cc1ccc2ncccc2c1 [y-80, 6-methylquinoline] | 74.7 |  |  | 
32 | O=C(O)c1ccnc2ccccc12 [y-82, 4-quinolinecarboxylic acid] | 55.5 |  |  | 
33 | Cc1cccc2nccnc12 [y-83, 5-methylquinoxaline] | 78.7 |  |  | 
34 | c1cnc2c(n1)CCCC2 [y-86, 5,6,7,8-tetrahydroquinoxaline] |  |  |  | Corrected repelling rate (%) Honeybees (honeybees; [8]): 73.2%
35 | Sc1ccc2ccccc2c1 [y-88, 2-naphthalenethiol] | 74.6 |  |  | 
36 | Cc1cccc2c(C)cccc12 [y-89, 1,5-dimethylnaphthalene] | 88.8 |  |  | 
37 | C=Cc1ccc(OC)cc1 [y-90, 4-methoxystyrene] |  |  |  | Corrected repelling rate (%) Honeybees (honeybees; [8]): 95.6%
38 | CN1CCCC1 [y-92, 1-methylpyrrolidine] | 25.9 |  |  | 
39 | COC[C@@H]1CCCN1 [y-93, (S)-2-(methoxymethyl)pyrrolidine] | 66.9 |  |  | 
40 | CCCCSCCCC [y-94, butyl sulfide] |  |  |  | Corrected repelling rate (%) Honeybees (honeybees; [8]): 17.2%
41 | (−)-menthyl succinate [y-32] | 57.7 |  |  | 
